According to patent US6022868A, “Substituted azacyclic or azabicyclic compounds” (Novo Nordisk Als, priority 1995, dated 2000):

Assays:
[1] = target: T1, nicotinic acetylcholine receptors (Rattus norvegicus, UniProt P09483+P12390); assay: inhibition of specific binding of 3H-methylcarbamylcholine (3H-MCC) to rat cortical receptors; conditions: for IC50: rat cortical receptors, 3H-MCC 2 nM, 0° C., 60 min; for Oxo/MCC Ratio: selectivity for nicotinic (3H-MCC) over muscarinic (3H-Oxo) receptors, rat cortex
T1 construct: Fresh or frozen rat, brain tissue (hippocampus or cortex) was homogenized in assay buffer; from tissue; host or cells: rat brain tissue (hippocampus or cortex)
T1 sequence (P09483 31-630): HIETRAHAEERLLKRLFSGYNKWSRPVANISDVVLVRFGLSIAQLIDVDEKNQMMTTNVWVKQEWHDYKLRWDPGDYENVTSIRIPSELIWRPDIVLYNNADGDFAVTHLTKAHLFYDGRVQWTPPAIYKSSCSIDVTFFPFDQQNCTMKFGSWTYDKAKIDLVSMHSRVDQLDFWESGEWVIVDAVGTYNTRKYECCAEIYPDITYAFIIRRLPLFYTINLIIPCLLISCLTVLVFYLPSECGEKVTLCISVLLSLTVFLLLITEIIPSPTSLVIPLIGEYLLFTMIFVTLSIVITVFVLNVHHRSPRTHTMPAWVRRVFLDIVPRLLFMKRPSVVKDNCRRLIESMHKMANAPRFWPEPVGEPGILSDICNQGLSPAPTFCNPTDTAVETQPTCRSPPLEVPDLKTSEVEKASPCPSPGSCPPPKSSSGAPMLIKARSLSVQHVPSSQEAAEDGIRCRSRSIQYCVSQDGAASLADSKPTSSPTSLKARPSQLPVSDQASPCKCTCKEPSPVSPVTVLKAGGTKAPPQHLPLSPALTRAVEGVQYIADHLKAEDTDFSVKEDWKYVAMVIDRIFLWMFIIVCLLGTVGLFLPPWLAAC
T1 sequence (P12390 25-500): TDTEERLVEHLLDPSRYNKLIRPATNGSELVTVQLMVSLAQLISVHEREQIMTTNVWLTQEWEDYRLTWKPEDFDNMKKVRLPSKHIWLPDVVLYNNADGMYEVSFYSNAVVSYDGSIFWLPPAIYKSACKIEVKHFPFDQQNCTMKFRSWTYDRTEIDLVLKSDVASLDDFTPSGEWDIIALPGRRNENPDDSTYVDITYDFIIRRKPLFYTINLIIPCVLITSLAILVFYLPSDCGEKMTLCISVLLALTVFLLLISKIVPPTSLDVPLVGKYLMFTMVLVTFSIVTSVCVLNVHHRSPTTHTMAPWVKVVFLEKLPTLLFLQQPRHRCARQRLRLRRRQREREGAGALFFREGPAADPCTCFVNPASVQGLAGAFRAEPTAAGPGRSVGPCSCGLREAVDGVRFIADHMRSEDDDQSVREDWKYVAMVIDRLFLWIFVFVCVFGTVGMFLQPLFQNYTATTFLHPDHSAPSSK
Excerpt: The pharmacological properties of the compounds of the invention can be illustrated by determining their capability to inhibit the specific binding of ^3 H-methylcarbamylcholine (^3 H-MCC) (Abood and Grassi, Biochem. Pharmacol., Vol. 35, pp. 4199-4202, (1986)).
^3 H-MCC labels the nicotinic receptors in the CNS. The inhibitory effect on ^3 H-MCC binding reflects the affinity for nicotinic acetylcholine receptors.
Fresh or frozen rat, brain tissue (hippocampus or cortex) was homogenized in assay buffer (5OmM Tris--HCI, pH 7.4, 120 mM NaCI, 5 mM KCI, 2 mM CaCI21 1mM MgCI2) and centrifuged for 10 min. at 40.000×g.Pellets were subsequently reconstituted in assay buffer and an appropriate amount of tissue sample was mixed in tubes with ^3 H--methylcarbamylcholine (NEN, NET--951; final concentration 2 nM) and test drug. The tubes were incubated at 0° C. for 60 min. Unbound ligand was separated from bound ligand by vacuum filtration through GF/B filters presoaked in 0.5 % polyethylenimine. Filters were washed three times with 5 ml wash buffer (50mM Tris--HCI, pH 7.4) and transferred to vials. 4 ml scintillation fluid was added and the radioactivity was measured by scintillation counting. Unspecific binding was measured with 10 μM nicotine.
The IC50 values of the test compounds were determined by nonlinear regression analyses (GraphPad InPlot).
Table I illustrates the affinity of the compounds of the present invention for nicotinic and muscarinic receptors as determined by ^3 H-MCC and ^3 H-Oxo binding to rat cortical receptors. The compounds, however, show selective affinity for nicotinic receptors as compared to muscarinic receptors, i.e OXO/MCC >1.

[2] = target: muscarinic acetylcholine receptors; assay: inhibition of specific binding of 3H-Oxotremorine-M (3H-Oxo) to rat cortical receptors; conditions: 3H-Oxo 1.0 nM, 25° C., 30 min
Excerpt: Furthermore, the pharmacological properties of the compounds of the invention can also be illustrated by determining their capability to inhibit the specific binding of ^3 H-Oxotremorine--M (^3 H-Oxo). Birdsdall N.J.M., Hulme E.C., and Burgen A.S.V. (1980). "The Character of Muscarinic Receptors in Different Regions of the Rat Brain". Proc. Roy. Soc. London (Series B) 207,1.
^3 H-Oxo labels muscarinic receptor in the CNS (with a preference for agonist domains of the receptors). Three different sites are labelled by ^3 H-Oxo. […] Using the present experimental conditions only the high and medium affinity sites are determined.
The inhibitory effects of compounds on ^3 H--Oxo binding reflects the affinity for muscarinic acetylcholine receptors.
All preparations are performed at 0-4° C. unless otherwise indicated. […]
The final pellet is homogenized in 20 mM Hepes pH: 7.4 (100 ml per g of original tissue) and used for binding assay. […] Non-specific binding is determined in triplicate using arecoline (1 ug/ml, final concentration) as the test substance. […] The amount of radioactivity on the filters are determined by conventional liquid scintillation counting. […]
Table I illustrates the affinity of the compounds of the present invention for nicotinic and muscarinic receptors as determined by ^3 H-MCC and ^3 H-Oxo binding to rat cortical receptors. […]

[3] = system: dopaminergic effects in various behavioral models; conditions: cited from earlier work
[4] = system: dopamine release in the nucleus accumbens; conditions: cited from earlier work
substantia nigra = conditions: chronic nicotine; cited from earlier work
[5] = in vivo; cited from earlier work

| Structure (SMILES) | IC50 [1] [nM] | Oxo/MCC Ratio [1] | IC50 [2] [µM] | potentiation of dopaminergic effects [3] | stimulation of dopamine release, nucleus accumbens versus striatum [4] | protection against cell loss in the substantia nigra caused by lesioning (substantia nigra) | effect in Tourette's syndrome [5] |
| --- | --- | --- | --- | --- | --- | --- | --- |
| Cc1cc(/C=C2/CCCNC2)on1.Cl [Compound 5, (Z)-3-(3-Methyl-5-isoxazolyl)methylenepiperidine hydrochloride] | 100 | 100 | 10 |  |  |  |  |
| CN1CCCC1c1cccnc1 (stereo not shown) [nicotine] |  |  |  | will potentiate dopaminergic effects in various behavioral models | stimulates dopamine release in the nucleus accumbens more potently than in striatum | may protect against cell loss in the substantia nigra caused by lesioning | beneficial effects in Tourette's syndrome |
| Cc1cc(/C=C2/CCCN(C)C2)on1.O=C(O)C(=O)O [Compound 1, (Z)-3-(3-Methyl-5-isoxazolyl)methylene-1-methylpiperidine oxalate] | 3050 | 1.7 | 5.15 |  |  |  |  |
